Data from patent US7208485B2, “Crystalline forms of halobetasol propionate” (Chemagis Ltd., priority 2003, dated 2007).

Assay: Thermal solid-state stability / phase transition on heating (hot-stage microscopy, DSC)
Assay type: physicochemical
Conditions: for temperature of solid-solid phase transition upon heating: heating at ambient pressure, observed by hot-stage microscopy and as DSC peak
Description: Differential scanning calorimetry experiments were run on DuPont instruments model DSC 910, with software version 4.1C. Samples were analyzed inside 40 μl crimped Aluminum pan. Heating rate for all samples was 5° C./min. Since the melting of halobetasol propionate is accompanied by decomposition, the heating process was stopped slightly after the beginning of melting, in order to avoid damage to the measuring apparatus caused by decomposition products.

Structure (SMILES) | temperature of solid-solid phase transition upon heating | other results
CCC(=O)O[C@]1(C(=O)CCl)[C@@H](C)CC2[C@@H]3C[C@H](F)C4=CC(=O)C=C[C@]4(C)[C@@]3(F)[C@@H](O)C[C@@]21C (some centres unmarked) [Form III, halobetasol propionate Form III] | 160 °C | 
CCC(=O)O[C@]1(C(=O)CCl)[C@@H](C)CC2[C@@H]3C[C@H](F)C4=CC(=O)C=C[C@]4(C)[C@@]3(F)[C@@H](O)C[C@@]21C (some centres unmarked) [Form IV, halobetasol propionate Form IV] | 120–130 °C | temperature of solid-solid phase transition under vacuum (heating under vacuum for about an hour or two): about 60 °C
CCC(=O)O[C@]1(C(=O)CCl)[C@@H](C)CC2[C@@H]3C[C@H](F)C4=CC(=O)C=C[C@]4(C)[C@@]3(F)[C@@H](O)C[C@@]21C (some centres unmarked) [Form I, halobetasol propionate Form I] | 90 °C | 
CCC(=O)O[C@]1(C(=O)CCl)[C@@H](C)CC2[C@@H]3C[C@H](F)C4=CC(=O)C=C[C@]4(C)[C@@]3(F)[C@@H](O)C[C@@]21C (some centres unmarked) [Form II, halobetasol propionate Form II] |  | temperature to which heated without converting to another crystalline or amorphous form and without significant decomposition (heating): ≤ 200 °C; transitions upon heating to melting temperature (hot stage microscopy): no detectable transitions

Now from value to compound, other results behind:

temperature of solid-solid phase transition upon heating | Structure (SMILES) | other results
about 90 °C | CCC(=O)O[C@]1(C(=O)CCl)[C@@H](C)CC2[C@@H]3C[C@H](F)C4=CC(=O)C=C[C@]4(C)[C@@]3(F)[C@@H](O)C[C@@]21C (some centres unmarked) [Form V, halobetasol propionate Form V] | 
150–170 °C | CCC(=O)O[C@]1(C(=O)CCl)[C@@H](C)CC2[C@@H]3C[C@H](F)C4=CC(=O)C=C[C@]4(C)[C@@]3(F)[C@@H](O)C[C@@]21C (some centres unmarked) [Form VI, halobetasol propionate Form VI] | 
